Tests used:
[1] = test system: panel of 68 radioligand receptor assays; assay: LeadProfilingScreen radioligand binding panel; conditions: 10 uM; none positive, mostly <10%
[2] = Plasma concentration and blood brain barrier penetration; conditions: G93A SOD1 transgenic mice, single ip 50 mg/kg
[3] = Caco-2 monolayer permeability; conditions: human
ALS = ALS patients, on average; ref [1]; cited from earlier work

O=C1CC(=O)CC(c2cc(C(F)(F)F)cc(C(F)(F)F)c2)C1 [Compound 26]
inhibition in all 68 radioligand receptor assays [1]: < 20% | period of stable plasma concentrations [2]: 3 to 12 h

CC(Oc1cc(C(F)(F)F)cc(C(F)(F)F)c1)C1CC(=O)CC(=O)C1 (stereo not shown) [Compound 73]
Papp A→B at 2 h, 50 μM [3]: 24.8 ×10⁻⁶ cm/s

Nc1nc2ccc(OC(F)(F)F)cc2s1 [riluzole]
extension of life (ALS): 2–3 months

Source: PMC3259267 (Bioorganic & medicinal chemistry, 2011)
